Assay results from patent US20250197372A1 (priority 2020, published 2025).

What was measured:
Type in all cases: biochemical
[1] = target: rat maltase (partially purified alpha-glucosidase from intestinal rat powder); experiment: Intestinal alpha-glucosidase assay, maltose substrate (Glucose GO Kit)
How it was run: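 Enzyme from intestinal rat powder, partially purified, is exposed to compound for 60 min at 37 °C. Disaccharide substrate (maltose or sucrose respectively) then reacts 30 min at 37 °C. Heat-stopped samples are assayed for glucose, and percent inhibition versus concentration gives IC50 via 4-PL.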

[2] = target: T1, recombinant alpha-glucosidase I (human full-length glucosidase I, Glu 1) (Homo sapiens, UniProt Q13724); experiment: Alpha-glucosidase I assay (Amplex Red glucose detection, synthetic trisaccharide substrate); settings: Glucosidase 1; read-out: Glu 1 IC50
T1 construct: 6-His (C); made in house; host or cells: HEK-293T cells transduced with BacMam virus (virus raised in Sf9)
T1 sequence (Q13724 1-837): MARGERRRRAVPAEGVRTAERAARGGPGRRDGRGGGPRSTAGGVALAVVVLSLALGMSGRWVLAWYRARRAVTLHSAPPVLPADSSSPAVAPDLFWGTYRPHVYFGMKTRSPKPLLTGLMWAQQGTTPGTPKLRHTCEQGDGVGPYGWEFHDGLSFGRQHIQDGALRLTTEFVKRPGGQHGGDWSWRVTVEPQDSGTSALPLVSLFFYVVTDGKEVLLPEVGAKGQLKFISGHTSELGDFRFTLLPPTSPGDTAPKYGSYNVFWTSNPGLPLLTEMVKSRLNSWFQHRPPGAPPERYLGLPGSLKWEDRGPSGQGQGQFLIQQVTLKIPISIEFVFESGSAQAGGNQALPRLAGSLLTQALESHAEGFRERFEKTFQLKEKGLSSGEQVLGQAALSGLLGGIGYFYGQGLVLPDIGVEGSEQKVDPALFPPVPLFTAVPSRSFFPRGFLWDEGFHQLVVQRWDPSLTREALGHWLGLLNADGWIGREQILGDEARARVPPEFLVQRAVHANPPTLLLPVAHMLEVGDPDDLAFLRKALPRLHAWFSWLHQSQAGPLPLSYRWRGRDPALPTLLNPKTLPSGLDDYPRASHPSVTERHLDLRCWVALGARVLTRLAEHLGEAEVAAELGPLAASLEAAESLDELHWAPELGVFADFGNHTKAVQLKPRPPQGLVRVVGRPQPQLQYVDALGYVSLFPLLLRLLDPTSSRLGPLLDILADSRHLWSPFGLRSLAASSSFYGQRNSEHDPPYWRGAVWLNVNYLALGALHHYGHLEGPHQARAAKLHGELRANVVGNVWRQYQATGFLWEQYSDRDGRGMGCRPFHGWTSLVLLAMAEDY
How it was run: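 Compound dilution series incubated 60 min at 37° C with recombinant His-tagged human glucosidase I ([…]), after which trisaccharide substrate analog was added for 90 min at 37° C. Reaction quenched with 1.5M Tris pH 8; D-glucose detected by Amplex Red fluorescence, 560/590 nm. 4-PL curve fit of percent inhibition gave IC50.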

[3] = target: rat sucrase (partially purified alpha-glucosidase from intestinal rat powder) (Rattus norvegicus, UniProt P23739); experiment: Intestinal alpha-glucosidase assay, sucrose substrate (Glucose GO Kit)
Chain of rat sucrase (partially purified alpha-glucosidase from intestinal rat powder) (P23739 whole entry): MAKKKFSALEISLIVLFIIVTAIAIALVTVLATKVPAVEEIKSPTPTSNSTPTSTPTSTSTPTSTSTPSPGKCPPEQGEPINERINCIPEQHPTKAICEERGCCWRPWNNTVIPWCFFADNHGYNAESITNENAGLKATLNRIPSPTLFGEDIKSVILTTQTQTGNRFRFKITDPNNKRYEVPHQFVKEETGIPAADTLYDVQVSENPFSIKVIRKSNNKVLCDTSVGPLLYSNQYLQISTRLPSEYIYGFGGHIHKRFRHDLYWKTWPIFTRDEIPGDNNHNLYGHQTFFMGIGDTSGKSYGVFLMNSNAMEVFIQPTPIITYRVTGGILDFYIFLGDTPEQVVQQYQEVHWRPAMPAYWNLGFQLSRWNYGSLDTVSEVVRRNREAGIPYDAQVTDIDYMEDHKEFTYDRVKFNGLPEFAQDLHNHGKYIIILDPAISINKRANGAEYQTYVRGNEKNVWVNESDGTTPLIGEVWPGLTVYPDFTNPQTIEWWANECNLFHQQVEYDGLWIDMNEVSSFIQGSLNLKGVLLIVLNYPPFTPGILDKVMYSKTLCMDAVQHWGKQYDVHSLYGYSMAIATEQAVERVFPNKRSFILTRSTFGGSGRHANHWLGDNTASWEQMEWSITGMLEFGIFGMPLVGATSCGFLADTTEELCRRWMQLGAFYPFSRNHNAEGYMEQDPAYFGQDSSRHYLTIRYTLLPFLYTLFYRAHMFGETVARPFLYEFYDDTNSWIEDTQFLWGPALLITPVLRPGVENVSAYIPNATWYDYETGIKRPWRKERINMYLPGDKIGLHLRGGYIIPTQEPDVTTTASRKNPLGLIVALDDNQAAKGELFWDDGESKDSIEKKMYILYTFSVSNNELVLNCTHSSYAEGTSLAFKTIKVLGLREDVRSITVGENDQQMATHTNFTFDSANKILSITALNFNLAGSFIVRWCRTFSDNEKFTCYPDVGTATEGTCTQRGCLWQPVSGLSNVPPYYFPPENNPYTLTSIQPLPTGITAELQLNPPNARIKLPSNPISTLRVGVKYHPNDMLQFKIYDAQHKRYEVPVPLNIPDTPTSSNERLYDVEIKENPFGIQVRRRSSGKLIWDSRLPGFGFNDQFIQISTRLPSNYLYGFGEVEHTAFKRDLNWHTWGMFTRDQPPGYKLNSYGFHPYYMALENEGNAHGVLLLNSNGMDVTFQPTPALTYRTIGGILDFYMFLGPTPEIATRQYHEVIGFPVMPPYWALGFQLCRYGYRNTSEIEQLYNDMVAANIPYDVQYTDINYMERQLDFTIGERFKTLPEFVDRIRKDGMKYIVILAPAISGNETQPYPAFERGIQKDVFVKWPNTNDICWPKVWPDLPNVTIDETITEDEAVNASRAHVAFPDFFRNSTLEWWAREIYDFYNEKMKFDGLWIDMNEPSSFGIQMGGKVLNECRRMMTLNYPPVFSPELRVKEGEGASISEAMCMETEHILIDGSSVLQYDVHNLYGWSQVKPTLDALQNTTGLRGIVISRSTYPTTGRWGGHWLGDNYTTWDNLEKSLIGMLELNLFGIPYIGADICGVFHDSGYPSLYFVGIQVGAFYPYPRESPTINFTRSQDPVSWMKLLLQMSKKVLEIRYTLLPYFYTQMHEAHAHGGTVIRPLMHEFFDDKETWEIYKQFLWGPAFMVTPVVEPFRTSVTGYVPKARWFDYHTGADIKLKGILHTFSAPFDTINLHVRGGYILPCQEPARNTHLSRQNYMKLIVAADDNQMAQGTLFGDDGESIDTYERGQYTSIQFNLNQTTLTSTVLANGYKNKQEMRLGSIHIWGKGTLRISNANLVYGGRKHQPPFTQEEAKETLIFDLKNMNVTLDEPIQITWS
How it was run: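 Partially purified alpha-glucosidase from rat intestinal powder was preincubated 60 min at 37 °C with serial compound dilutions, then given maltose or sucrose and incubated 30 min at 37 °C.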

[4] = target: T2, recombinant alpha-glucosidase II (murine full-length glucosidase II, alpha and beta subunits, Glu 2) (Mus musculus, UniProt Q8BHN3); experiment: Alpha-glucosidase II assay (4-methylumbelliferyl-alpha-D-pyranoside substrate, fluorescence); settings: Glucosidase 2; read-out: Glu2 IC50
T2 construct: made in house; host or cells: HEK-293T cells transduced with BacMam viruses (75% alpha, 25% beta); protein harvested from culture supernatant
T2 sequence (O08795 15-521): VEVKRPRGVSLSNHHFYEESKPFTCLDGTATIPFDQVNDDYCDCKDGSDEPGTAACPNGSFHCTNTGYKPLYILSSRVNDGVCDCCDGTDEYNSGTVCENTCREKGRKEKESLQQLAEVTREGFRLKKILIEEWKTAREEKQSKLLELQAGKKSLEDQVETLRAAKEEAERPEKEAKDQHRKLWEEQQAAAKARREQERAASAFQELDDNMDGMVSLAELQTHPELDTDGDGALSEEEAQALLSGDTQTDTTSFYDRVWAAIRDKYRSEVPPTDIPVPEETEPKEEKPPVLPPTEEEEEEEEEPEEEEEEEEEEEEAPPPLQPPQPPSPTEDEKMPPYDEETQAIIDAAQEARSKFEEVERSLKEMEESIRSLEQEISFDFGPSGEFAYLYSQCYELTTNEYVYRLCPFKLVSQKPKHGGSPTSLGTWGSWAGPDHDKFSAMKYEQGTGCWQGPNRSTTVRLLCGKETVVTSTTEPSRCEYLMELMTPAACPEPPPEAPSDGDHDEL
T2 sequence (Q8BHN3 33-944): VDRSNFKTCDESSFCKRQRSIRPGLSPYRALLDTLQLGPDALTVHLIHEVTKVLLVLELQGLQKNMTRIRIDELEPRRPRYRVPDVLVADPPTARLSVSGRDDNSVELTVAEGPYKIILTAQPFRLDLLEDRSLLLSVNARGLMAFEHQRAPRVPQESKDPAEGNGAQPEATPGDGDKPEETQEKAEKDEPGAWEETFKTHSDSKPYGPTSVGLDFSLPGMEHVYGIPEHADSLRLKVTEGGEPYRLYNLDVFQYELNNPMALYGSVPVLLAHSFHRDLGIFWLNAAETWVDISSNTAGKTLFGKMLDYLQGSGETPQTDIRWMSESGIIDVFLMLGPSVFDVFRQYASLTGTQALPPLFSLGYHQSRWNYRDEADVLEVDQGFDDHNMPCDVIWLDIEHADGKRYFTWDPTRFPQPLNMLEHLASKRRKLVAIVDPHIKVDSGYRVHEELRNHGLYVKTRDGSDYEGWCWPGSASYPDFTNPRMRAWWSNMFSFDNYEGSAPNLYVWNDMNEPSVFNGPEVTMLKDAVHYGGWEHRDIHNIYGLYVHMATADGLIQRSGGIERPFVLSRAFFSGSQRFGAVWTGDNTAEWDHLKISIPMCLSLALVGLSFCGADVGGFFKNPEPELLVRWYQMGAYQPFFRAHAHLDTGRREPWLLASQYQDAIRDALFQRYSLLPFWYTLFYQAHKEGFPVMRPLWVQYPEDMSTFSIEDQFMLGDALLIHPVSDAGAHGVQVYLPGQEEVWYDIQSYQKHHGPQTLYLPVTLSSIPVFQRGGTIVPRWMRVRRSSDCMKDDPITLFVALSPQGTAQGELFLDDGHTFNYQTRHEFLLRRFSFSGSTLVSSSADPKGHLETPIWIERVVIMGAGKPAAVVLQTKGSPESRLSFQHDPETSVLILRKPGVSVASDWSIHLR

In the case of `O=[N+]([O-])c1cc(CN2CCCO2)ccc1NCc1cccc(CN2C[C@H](O)[C@@H](O)[C@H](O)[C@H]2CO)c1` [Compound 1086], the IC50 [1] is reported as 0.124 µM, the IC50 [2] is reported as 0.132 µM and the IC50 [3] is reported as 0.076 µM. It also gave an IC50 [4] of 44.2 µM.

With `CC(C)c1cc(CCNc2ccc(N=[N+]=[N-])cc2[N+](=O)[O-])cc(CCN2C[C@H](O)[C@@H](O)[C@H](O)[C@H]2CO)c1` [Compound 1077, (2R,3R,4R,5S)-1-[2-(3-{2-[(4-azido-2-nitrophenyl)amino]ethyl}-5-(propan-2-yl)phenyl)ethyl]-2-(hydroxymethyl)piperidine-3,4,5-triol] the IC50 [1] was 6.65 µM, the IC50 [2] was 0.697 µM and the IC50 [3] was 8.14 µM. For the same molecule, the IC50 [4] was 0.203 µM.

For `Cc1cc(NCc2ccc(CN3C[C@H](O)[C@@H](O)[C@H](O)[C@H]3CO)cc2)cc(C2=COCCO2)c1` [Compound 1050, (2R,3R,4R,5S)-1-{[4-({[3-(5,6-dihydro-1,4-dioxin-2-yl)-5-methylphenyl]amino}methyl)phenyl]methyl}-2-(hydroxymethyl)piperidine-3,4,5-triol], the IC50 [1] was less than 0.001 µM, the IC50 [2] was 0.032 µM and the IC50 [3] was 0.004 µM. It also gave an IC50 [4] of 0.003 µM.

`N#Cc1cc(NCc2ccc(CN3C[C@H](O)[C@@H](O)[C@H](O)[C@H]3CO)cc2)cc(N2CCOCC2)c1` [Compound 1060, 3-(morpholin-4-yl)-5-{[(4-{[(2R,3R,4R,5S)-3,4,5-trihydroxy-2-(hydroxymethyl)piperidin-1-yl]methyl}phenyl)methyl]amino}-benzonitrile] showed an IC50 [1] of 0.009 µM, an IC50 [2] of 0.041 µM and an IC50 [3] of 0.052 µM. The IC50 [4] was 0.262 µM.

Molecule `OC[C@@H]1[C@@H](O)[C@H](O)[C@@H](O)CN1Cc1ccc(CNc2ccc(CN3CCCO3)cc2)cc1` [Compound 1092, (2R,3R,4R,5S)-2-(hydroxymethyl)-1-({4-[({4-[(1,2-oxazolidin-2-yl)methyl]phenyl}amino)methyl]phenyl}methyl)piperidine-3,4,5-triol] has an IC50 [1] of 0.038 µM, an IC50 [2] of 0.059 µM and an IC50 [3] of 0.048 µM. It also gave an IC50 [4] of 1.78 µM.

Work on `OC[C@@H]1[C@@H](O)[C@H](O)[C@@H](O)CN1Cc1cccc(CNc2ccc(-c3ncccn3)cc2)c1` [Compound 1084, (2R,3R,4R,5S)-2-(hydroxymethyl)-1-{[3-({[4-(pyrimidin-2-yl)phenyl]amino}methyl)phenyl]methyl}piperidine-3,4,5-triol] yielded an IC50 [1] of 0.095 µM, an IC50 [2] of 0.079 µM and an IC50 [3] of 0.044 µM. The IC50 [4] was 26.6 µM.

With `N#Cc1cc(NCc2cccc(CN3C[C@H](O)[C@@H](O)[C@H](O)[C@H]3CO)c2)cc(-c2ncccn2)c1` [Compound 1047, 3-(pyrimidin-2-yl)-5-{[(3-{[(2R,3R,4R,5S)-3,4,5-trihydroxy-2-(hydroxymethyl)piperidin-1-yl]methyl}phenyl)methyl]amino}benzonitrile] the IC50 [1] was less than 0.001 µM, the IC50 [2] was 0.013 µM and the IC50 [3] was 0.011 µM. The IC50 [4] was 12.9 µM.

`N#Cc1cc(NCc2ccc(CN3C[C@H](O)[C@@H](O)[C@H](O)[C@H]3CO)cc2)cc(-c2cccnn2)c1` [Compound 1064, 3-(pyridazin-3-yl)-5-{[(4-{[(2R,3R,4R,5S)-3,4,5-trihydroxy-2-(hydroxymethyl)piperidin-1-yl]methyl}phenyl)methyl]amino}-benzonitrile] was tested, and the IC50 [1] was 0.002 µM, the IC50 [2] was 0.012 µM and the IC50 [3] was 0.026 µM. It also gave an IC50 [4] of 0.002 µM.

Molecule `[N-]=[N+]=Nc1ccc(NCCC23CC(CCN4C[C@H](O)[C@@H](O)[C@H](O)[C@H]4CO)(C2)C3)c([N+](=O)[O-])c1` [Compound 1103, (2R,3R,4R,5S)-1-[2-(3-{2-[(4-azido-2-nitrophenyl)amino]ethyl}bicyclo[1.1.1]pentan-1-yl)ethyl]-2-(hydroxymethyl)piperidine-3,4,5-triol] has an IC50 [1] of 0.279 µM, an IC50 [2] of 0.267 µM and an IC50 [3] of 0.569 µM. The IC50 [4] was 0.005 µM.
